{
  "source": "patent US20060179492A1",
  "about": "“Method of inhibiting neural transmission mediated by serotonin-2a and enhancing sensorimotor gating” (The Regents of the University of California, priority 2002, published 2006)",
  "key": {"[1]": {"tested_on": "PPI deficits produced by the serotonin-2A agonist DOI", "assay": "DOI-induced disruption of prepulse inhibition (PPI) of the startle reflex", "assay_type": "in vivo, Sprague Dawley rats", "details": "for startle magnitude (main effect, ANOVA): NT69L versus DOI experiment", "protocol": "(§1) Animals: Ninety-six male Sprague Dawley rats (250-300 grams at testing) were obtained from Harlan Laboratories, San Diego. In the experiments of Example 1, all groups contained an n of 8. Animals were housed in groups of two or three in clear plastic chambers in a climate controlled room on a 12:12 hour light/dark cycle (lights on 7:00 a.m.-7:00 p.m.). The rats were handled prior to testing. All testing occurred during the light phase of the rats' circadian illumination schedule and they were allowed free access to food and water for the extent of the study, except during the actual testing. Behavioral testing was performed between 9:00 am and 4:30 pm beginning 7 days after arrival. All studies described in this publication were carried out in accordance with the “Principles of laboratory and animal care” as described in the Guide for the Care and Use of Laboratory Animals as adopted and promulgated by the National Institutes of Health.\n(§2) Drugs: PD149163 (LysΨ(CH2NH)-Lys-Pro-Trp-tLeu-Leu-OEt) was generously made available by the NIMH Chemical Synthesis and Drug Supply Program, and SR1 International, Menlo Park, Calif. NT69L (N-methyl-Arg-Lys-Pro-L-neo-Trp-tLeu-Leu) was developed at Mayo Clinic, Jacksonville, Fla., as described in Tyler-McMahon et al. 2000. DOI and cirazoline hydrochloride were obtained from Sigma Chemicals, St. Louis, Mo. All drugs used were dissolved in saline.\n(§3) Startle Testing and Test Sessions. Startle testing was performed in four identical startle chambers obtained from San Diego Instruments (San Diego, Calif.). Each chamber consisted of a clear non-restrictive Plexiglass cylinder resting on a Plexiglass platform inside a ventilated and illuminated enclosure housed in a sound-attenuated room. A continuous background noise of 65 dB, as well as the various acoustic stimuli, was produced within each chamber by a high-frequency loudspeaker (Radio Shack Supertweeter, San Diego, Calif.). The whole-body startle response of each animal produced vibrations of the Plexiglass cylinder, which were transduced into analog signals by a piezoelectric unit, mounted underneath the Plexiglass platform (Mansbach et al., 1988). These analog signals were then digitized and stored by an interface unit connected to a microcomputer. Startle amplitude was defined as the degree of motion detected by the piezoelectric unit.\n(§4) The animals were subjected to a 5-minute acclimation to the 65 dB background noise, which continued throughout the session. The acclimation was followed by a 15 minute PPI test session. Five trial types were presented during the test session: 40 msec 120 dB startle pulses (PULSE-ALONE), startle pulses preceded 100 msecs by 20 msec prepulses of either 4, 8, or 12 dB above background, and NO-[…] trials. All trial types were presented in pseudo-random order separated by an average of 15 seconds. In addition, four PULSE-ALONE trials that were not used in the calculation of PPI values were presented at the beginning and at the end of the test session, to habituate animals to the pulse and in order to provide a measure of habituation across the session.\nNT69L versus DOI. Thirty-two drug-naïve rats were administered subcutaneous (SC) injections of the following doses of NT69L, 0 (saline), 0.1, 1, or 2 mg/kg. Thirty minutes later, they were injected SC with either saline or DOI (0.5 mg/kg), a dose known to reliably disrupt PPI. Animals were tested in startle chambers thirty minutes later and PPI measured as described. After one week, animals were tested a second time during which treatment and testing procedures were the same except that rats that previously received DOI received saline and vice versa. The dose of NT69L was kept constant on both test days.\nData and Statistical Analysis. A startle response was recorded for all stimuli presentations. […]"}, "[2]": {"tested_on": "PPI deficits produced by DOI", "details": "reported by Geyer et al.; cited from earlier work"}, "[3]": {"tested_on": "PPI deficits produced by the alpha-1 adrenergic agonist cirazoline", "assay": "Cirazoline-induced disruption of prepulse inhibition (PPI) of the startle reflex", "assay_type": "in vivo, Sprague Dawley rats", "details": "for PPI of saline/cirazoline rats versus saline/saline rats: cirazoline 0.7 mg/kg SC", "protocol": "as §1, §2, §3, §4\nPD149163 versus cirazoline. Thirty-two drug-naïve rats were administered SC injections of the following doses of PD149163, 0 (saline), 0.01, 0.1, or 1 mg/kg. Thirty minutes later, they were injected SC with either saline or cirazoline (0.7 mg/kg), a dose known to reliably disrupt PPI. Animals were tested in startle chambers thirty minutes later and PPI measured as described. […]"}, "BB rats": {"tested_on": "BB rats", "assay": "Catalepsy bar test", "assay_type": "in vivo, Brattleboro rats", "details": "30 min after SC: haloperidol 1 mg/kg (P<0.001), clozapine 10 or 15 mg/kg, PD149163 1 or 2 mg/kg; versus saline", "protocol": "Doses selected were those that produced the greatest effect in the PPI studies. Thirty minutes after SC injections animals were tested in the using a method described by several other authors (Stanley and Glick, 1976; Costall et al., 1978; Wadenberg, 1996). This method involved placing the forepaws of each rat in an extended position over a pencil that was suspended horizontally 9 cm above the lab bench. The time spent in this position before the animal moved or corrected itself was considered a measure of catalepsy."}, "PPI": {"tested_on": "PPI", "details": "sedating psychotropic drug without antipsychotic properties; cited from earlier work"}, "Brown Norway (BN) rats": {"tested_on": "Brown Norway (BN) rats", "assay": "PPI in Brown Norway rats with low PPI", "assay_type": "in vivo", "details": "acute administration"}, "serotonin-2A receptor": {"target": "serotonin-2A receptor (Homo sapiens, UniProt P28223)", "sequence (P28223 whole entry)": "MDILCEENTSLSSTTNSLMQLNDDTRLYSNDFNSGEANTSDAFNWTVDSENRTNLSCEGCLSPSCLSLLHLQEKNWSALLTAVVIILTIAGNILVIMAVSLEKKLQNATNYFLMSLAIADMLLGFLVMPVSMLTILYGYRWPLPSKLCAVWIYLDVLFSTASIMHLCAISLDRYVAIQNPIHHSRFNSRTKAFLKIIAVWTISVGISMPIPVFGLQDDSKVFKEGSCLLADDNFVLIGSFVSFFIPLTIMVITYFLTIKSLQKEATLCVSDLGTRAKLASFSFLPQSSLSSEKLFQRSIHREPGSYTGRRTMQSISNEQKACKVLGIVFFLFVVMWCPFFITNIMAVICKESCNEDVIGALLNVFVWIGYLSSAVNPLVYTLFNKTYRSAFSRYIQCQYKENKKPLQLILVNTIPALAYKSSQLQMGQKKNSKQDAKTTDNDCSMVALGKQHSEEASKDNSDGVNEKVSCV", "details": "cited from earlier work"}, "[4]": {"tested_on": "alpha-1 adrenergic receptors", "details": "cited from earlier work"}, "monoamine receptors": {"tested_on": "monoamine receptors", "details": "cited from earlier work"}},
  "note": "Structures can show the parent of a compound that is named as a salt.",
  "data": [
    {"compound": "COc1cc(CC(C)N)c(OC)cc1I.Cl", "note": "(centres unmarked) [DOI, 1-(2,5-dimethoxy-4-iodophenyl)-2-aminopropane hydrochloride]", "values": [
      {"measurement": "PPI of saline/DOI rats versus saline/saline rats", "setting": "[1]; DOI 0.5 mg/kg SC, P<0.001", "result": "significantly decreased PPI"},
      {"measurement": "startle magnitude (main effect, ANOVA)", "setting": "[1]", "result": "no significant main effect"}
    ]},
    {"compound": "COc1cccc([C@H](O)C2CCN(CCc3ccc(F)cc3)CC2)c1OC", "note": "[MDL100907]", "values": [
      {"measurement": "effect on PPI deficits produced by DOI", "setting": "[2]", "result": "antagonize PPI deficits produced by DOI"}
    ]},
    {"compound": "CN1CC[C@@H]2CN3CCc4cccc(c43)[C@@H]2C1.O=C(O)/C=C/C(=O)O", "note": "[SDZ SER-082]", "values": [
      {"measurement": "effect on PPI deficits produced by DOI", "setting": "[2]", "result": "do not block DOI-induced PPI deficits"}
    ]},
    {"compound": "c1ccc(C2CC2)c(OCC2=NCCN2)c1", "note": "[cirazoline, cirazoline hydrochloride]", "values": [
      {"measurement": "PPI of saline/cirazoline rats versus saline/saline rats", "setting": "[3]; NT69L experiment, P<0.05", "result": "significantly decreased PPI"},
      {"measurement": "PPI of saline/cirazoline rats versus saline/saline rats", "setting": "[3]; PD149163 experiment, P<0.01", "result": "significantly decreased PPI"}
    ]},
    {"compound": "CN1CCN(C2=Nc3cc(Cl)ccc3Nc3ccccc32)CC1", "note": "[clozapine]", "values": [
      {"measurement": "catalepsy: time rats remained on the bar", "setting": "BB rats", "result": "no dose of clozapine or PD149163 significantly increased"}
    ]},
    {"compound": "CN1C(=O)CN=C(c2ccccc2)c2cc(Cl)ccc21", "note": "[diazepam]", "values": [
      {"measurement": "effect on PPI", "setting": "PPI", "result": "decrease rather than facilitate PPI"}
    ]},
    {"compound": "O=C(CCCN1CCC(O)(c2ccc(Cl)cc2)CC1)c1ccc(F)cc1", "note": "[haloperidol]", "values": [
      {"measurement": "catalepsy: time rats remained on the bar", "setting": "BB rats", "result": "significantly increased the time rats remained on the bar"},
      {"measurement": "effect on PPI deficits produced by DOI", "setting": "[2]", "result": "do not block DOI-induced PPI deficits"},
      {"measurement": "PPI in BN rats", "setting": "Brown Norway (BN) rats", "result": "did not enhance PPI"}
    ]},
    {"compound": "O=C(c1ccc(F)cc1)C1CCN(CCn2c(=O)[nH]c3ccccc3c2=O)CC1", "note": "[ketanserin]", "values": [
      {"measurement": "effect on PPI deficits produced by DOI", "setting": "[2]", "result": "antagonize PPI deficits produced by DOI"}
    ]},
    {"compound": "CC(C)NCC(O)COc1cccc2ccccc12", "note": "(centres unmarked) [propanolol]", "values": [
      {"measurement": "effect on PPI deficits produced by DOI", "setting": "[2]", "result": "do not block DOI-induced PPI deficits"}
    ]},
    {"compound": "CCN1CCC[C@H]1CNC(=O)c1c(O)c(Cl)cc(Cl)c1OC", "note": "[raclopride]", "values": [
      {"measurement": "effect on PPI deficits produced by DOI", "setting": "[2]", "result": "do not block DOI-induced PPI deficits"}
    ]},
    {"compound": "Cc1nc2n(c(=O)c1CCN1CCC(c3noc4cc(F)ccc34)CC1)CCCC2", "note": "[risperidone]", "values": [
      {"measurement": "effect on PPI deficits produced by DOI", "setting": "[2]", "result": "antagonize PPI deficits produced by DOI"}
    ]},
    {"compound": "N-methyl-Arg-Lys-Pro-L-neo-Trp-tLeu-Leu [NT69L]", "values": [
      {"measurement": "effect on cirazoline-induced PPI deficits", "setting": "[3]; NT69L 1 mg/kg SC 30 min before cirazoline 0.7 mg/kg SC", "result": "blocked the PPI deficits produced by cirazoline"},
      {"measurement": "startle versus rats that received cirazoline and saline", "setting": "[3]; cirazoline + NT69L 1 mg/kg SC, P<0.05", "result": "significantly lower"},
      {"measurement": "startle magnitude (main effect, ANOVA)", "setting": "[3]; cirazoline experiments, PD149163 P<0.05, NT69L P<0.01", "result": "significant main effect"},
      {"measurement": "PPI versus rats that received DOI/saline", "setting": "[1]; NT69L 0.1 mg/kg SC + DOI 0.5 mg/kg SC, P<0.001", "result": "significantly greater than PPI exhibited by rats that received DOI/saline"},
      {"measurement": "PPI versus rats that received DOI/saline", "setting": "[1]; NT69L 1 mg/kg SC + DOI 0.5 mg/kg SC, P<0.05", "result": "significantly greater than PPI exhibited by rats that received DOI/saline"},
      {"measurement": "PPI versus rats that received DOI/saline", "setting": "[1]; NT69L 2 mg/kg SC + DOI 0.5 mg/kg SC, P<0.01", "result": "significantly greater than PPI exhibited by rats that received DOI/saline"},
      {"measurement": "startle magnitude (main effect, ANOVA)", "setting": "[1]", "result": "no significant main effect"},
      {"measurement": "effect on DOI-induced PPI deficits", "setting": "[1]; all three active doses of NT69L (0.1, 1, 2 mg/kg SC) 30 min before DOI 0.5 mg/kg SC, tested 30 min later", "result": "blocked the PPI deficits produced by DOI"},
      {"measurement": "binding to serotonin-2A receptors", "setting": "serotonin-2A receptor", "result": "neither PD149163 or NT69L bind"},
      {"measurement": "binding to alpha-1 adrenergic receptors", "setting": "[4]", "result": "neither PD149163 or NT69L bind"},
      {"measurement": "affinity for monoamine receptors", "setting": "monoamine receptors", "result": "minimal affinity"}
    ]}
  ]
}
